# Key:
# [1] = molecular target: KRAS-G12V/RAF1 (Homo sapiens (Human), UniProt P01116, G12V); experiment: KRAS/RAF1 binding inhibition assay (AlphaScreen)
# Protocol: Binding affinity against GTP-bound KRAS of the compounds disclosed herein was measured by monitoring the interaction of guanosine 5′-[β,γ-imido]triphosphate-bound (GppNHp-bound) KRAS with the RBD domain of RAF1 in the presence of the test compound. […] The test compounds in 2% DMSO (final concentration) at various concentrations were then added to the reaction mixture and incubated for 60 minutes at 4° C.
# Raw ALphaScreen data were converted to a percentage of inhibition (relative to DMSO) using the following equations: • a) For a given test compound concentration X: […]
# The IC50 values were determined by nonlinear regression of plots of [inhibitor] vs. percentage of inhibition with variable slope, analyzed using GraphPad Prism (Version 9).
# [2] = molecular target: KRAS G12V (Homo sapiens (Human), UniProt P01116, G12V); experiment: KRAS G12V degradation in SW620 cells (Western blot, DC50); format: cell-based; conditions: 24 hours
# Protocol: SW620 (KRAS G12V homozygous), AsPC1 (KRAS G12D homozygous), MIA PaCa2 (KRAS G12C homozygous), A549 (KRAS G12S homozygous) and MCF7 (KRAS WT) cells were obtained from American Type Culture Collection (ATCC). […] The following day, the test compound was administered to the cells by using 1000× compound stock solution prepared in DMSO at various concentrations. After administration of the compound, the cells were then incubated at 37° C. for 24 hours. Upon completion, the cells were washed with PBS and protein was collected in Laemmli sample buffer (1×; VWR International). Proteins in cell lysate were separated by SDS-PAGE and transferred to Odyssey nitrocellulose membranes (Licor) with iblot® dry blotting transfer system (ThermoFisher). Nonspecific binding was blocked by incubating membranes with Intercept Blocking Buffer (Licor) for 1 hour at room temperature with gentle shaking. […] After washing 3 times with TBS-T, the membranes were incubated with IRDye® 800CW goat anti-rabbit IgG (1:20,000, Licor) and IRDye® 680RD goat anti-mouse IgG (1:20,000, Licor) for 1 hour. After TBS-T washes, membranes were rinsed in TBS and Western blot images were acquired by Odyssey CLx (LI-COR Biosciences).
# The signal intensity of target proteins was calculated using ImageStudio software. KRAS fluorescent intensity (FLU) from DMSO (vehicle) treatment was set as 100%. Relative KRAS expression level was determined by the following formula: […]
# The percentage of KRAS expression was calculated using Microsoft Excel. The half-maximal degradation concentration (DCso) values were generated by GraphPad Prism (Version 9) using the dose-response equation of variable slope (four parameters).
# Sequence of KRAS G12V (P01116-2 other isoform, or with tags, fused parts or gaps G12V): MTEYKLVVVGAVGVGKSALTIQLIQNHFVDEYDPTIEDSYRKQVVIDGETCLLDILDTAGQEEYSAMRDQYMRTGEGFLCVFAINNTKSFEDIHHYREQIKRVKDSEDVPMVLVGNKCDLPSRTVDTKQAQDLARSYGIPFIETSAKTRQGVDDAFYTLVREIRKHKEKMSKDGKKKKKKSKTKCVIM
# Sequence of KRAS-G12V/RAF1 (P01116-2 other isoform, or with tags, fused parts or gaps G12V): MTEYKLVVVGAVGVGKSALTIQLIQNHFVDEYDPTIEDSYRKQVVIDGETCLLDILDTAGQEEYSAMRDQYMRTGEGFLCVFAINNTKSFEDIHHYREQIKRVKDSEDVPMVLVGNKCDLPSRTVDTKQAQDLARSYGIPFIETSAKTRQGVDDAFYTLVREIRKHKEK
SMILES,IC50 [1],DC50 [2]
"CCc1cccc2cc(O)cc(-c3ncc4c(N5CCOC[C@@](C)(O)C5)nc(OCC5(CN6CCC7(CC6)CC(CN6CCN(c8ccc9c(c8)CN([C@H]8CCC(=O)NC8=O)C9=O)CC6)C7)CC5)nc4c3F)c12 [Compound 106, (S)-3-(5-(4-((7-((1-(((7-(8-ethyl-3-hydroxynaphthalen-1-yl)-8-fluoro-4-((S)-6-hydroxy-6-methyl-1,4-oxazepan-4-yl)pyrido[4,3-d]pyrimidin-2-yl)oxy)methyl)cyclopropyl)methyl)-7-azaspiro[3.5]nonan-2-yl)methyl)piperazin-1-yl)-1-oxoisoindolin-2-yl)piperidine-2,6-dione]",20 to 200 nM,1 to 10 nM
"CCc1c(F)ccc2cc(O)cc(-c3ncc4c(N5CCOC[C@](C)(O)C5)nc(OCC5(CN6CCC(CN7CCN(c8ccc9c(c8)CN([C@H]8CCC(=O)NC8=O)C9=O)CC7)CC6)CC5)nc4c3F)c12 [Compound 112, (S)-3-(5-(4-((1-((1-(((7-(8-ethyl-7-fluoro-3-hydroxynaphthalen-1-yl)-8-fluoro-4-((R)-6-hydroxy-6-methyl-1,4-oxazepan-4-yl)pyrido[4,3-d]pyrimidin-2-yl)oxy)methyl)cyclopropyl)methyl)piperidin-4-yl)methyl)piperazin-1-yl)-1-oxoisoindolin-2-yl)piperidine-2,6-dione]",> 200 nM,> 100 nM
"CCc1c(F)ccc2cc(O)cc(-c3ncc4c(N5CCCNC(=O)C5)nc(OCC5(CN6CCC(CN7CCN(c8ccc9c(c8)CN([C@H]8CCC(=O)NC8=O)C9=O)CC7)CC6)CC5)nc4c3F)c12 [Compound 95, (S)-3-(5-(4-((1-((1-(((7-(8-ethyl-7-fluoro-3-hydroxynaphthalen-1-yl)-8-fluoro-4-(3-oxo-1,4-diazepan-1-yl)pyrido[4,3-d]pyrimidin-2-yl)oxy)methyl)cyclopropyl)methyl)piperidin-4-yl)methyl)piperazin-1-yl)-1-oxoisoindolin-2-yl)piperidine-2,6-dione]",–,> 100 nM
"CCc1c(F)ccc2cc(O)cc(-c3ncc4c(N5CCCC6(CC(O)C6)C5)nc(OCC5(CN6CCC7(CC6)CC(CN6CCN(c8ccc9c(c8)CN([C@H]8CCC(=O)NC8=O)C9=O)CC6)C7)CC5)nc4c3F)c12 [Compound 97, (S)-3-(5-(4-((7-((1-(((7-(8-ethyl-7-fluoro-3-hydroxynaphthalen-1-yl)-8-fluoro-4-(2-hydroxy-6-azaspiro[3.5]nonan-6-yl)pyrido[4,3-d]pyrimidin-2-yl)oxy)methyl)cyclopropyl)methyl)-7-azaspiro[3.5]nonan-2-yl)methyl)piperazin-1-yl)-1-oxoisoindolin-2-yl)piperidine-2,6-dione]",> 200 nM,> 100 nM
"CCc1c(F)ccc2cc(O)cc(-c3ncc4c(N5CCCC(C)(F)C5)nc(OCC5(CN6CCC7(CC6)CC(CN6CCN(c8ccc9c(c8)CN([C@H]8CCC(=O)NC8=O)C9=O)CC6)C7)CC5)nc4c3F)c12 (stereo partly drawn) [Compound 132, (3S)-3-(5-(4-((7-((1-(((7-(8-ethyl-7-fluoro-3-hydroxynaphthalen-1-yl)-8-fluoro-4-(3-fluoro-3-methylpiperidin-1-yl)pyrido[4,3-d]pyrimidin-2-yl)oxy)methyl)cyclopropyl)methyl)-7-azaspiro[3.5]nonan-2-yl)methyl)piperazin-1-yl)-1-oxoisoindolin-2-yl)piperidine-2,6-dione]",> 200 nM,> 100 nM
"CCc1c(F)ccc2cc(O)cc(-c3ncc4c(N5CCC[C@]6(CCO6)C5)nc(OCC5(CN6CCC(CN7CCN(c8ccc9c(c8)CN(C8CCC(=O)NC8=O)C9=O)CC7)CC6)CC5)nc4c3F)c12 (stereo partly drawn) [Compound 44, (S)-3-(5-(4-((1-((1-(((7-(8-ethyl-7-fluoro-3-hydroxynaphthalen-1-yl)-8-fluoro-4-((S)-1-oxa-6-azaspiro[3.5]nonan-6-yl)pyrido[4,3-d]pyrimidin-2-yl)oxy)methyl)cyclopropyl)methyl)piperidin-4-yl)methyl)piperazin-1-yl)-1-oxoisoindolin-2-yl)piperidine-2,6-dione]",–,1 to 10 nM
"CCc1c(F)ccc2cc(O)cc(-c3ncc4c(N5CCC[C@@]6(CCO6)C5)nc(OCC5(CN6CCC(CN7CCN(c8ccc9c(c8)CN(C8CCC(=O)NC8=O)C9=O)CC7)CC6)CC5)nc4c3F)c12 (stereo partly drawn) [Compound 45, (S)-3-(5-(4-((1-((1-(((7-(8-ethyl-7-fluoro-3-hydroxynaphthalen-1-yl)-8-fluoro-4-((R)-1-oxa-6-azaspiro[3.5]nonan-6-yl)pyrido[4,3-d]pyrimidin-2-yl)oxy)methyl)cyclopropyl)methyl)piperidin-4-yl)methyl)piperazin-1-yl)-1-oxoisoindolin-2-yl)piperidine-2,6-dione]",–,> 100 nM
"CCc1c(F)ccc2cc(O)cc(-c3ncc4c(N5CCCC6(CCO6)C5)nc(OCC5(CN6CCC(CN7CCN(c8ccc9c(c8)CN(C8CCC(=O)NC8=O)C9=O)CC7)CC6)CC5)nc4c3F)c12 [Compound 23, (3S)-3-(5-(4-((1-((1-(((7-(8-ethyl-7-fluoro-3-hydroxynaphthalen-1-yl)-8-fluoro-4-(1-oxa-6-azaspiro[3.5]nonan-6-yl)pyrido[4,3-d]pyrimidin-2-yl)oxy)methyl)cyclopropyl)methyl)piperidin-4-yl)methyl)piperazin-1-yl)-1-oxoisoindolin-2-yl)piperidine-2,6-dione]",–,1 to 10 nM
"CCc1c(F)ccc2cc(O)cc(-c3ncc4c(N5CCC[C@@](C)(O)C5)nc(OCC5(CN6CCC(N7CCN(c8ccc9c(c8)CN([C@H]8CCC(=O)NC8=O)C9=O)CC7)CC6)CC5)nc4c3F)c12 [Compound 7, (S)-3-(5-(4-(1-((1-(((7-(8-ethyl-7-fluoro-3-hydroxynaphthalen-1-yl)-8-fluoro-4-((R)-3-hydroxy-3-methylpiperidin-1-yl)pyrido[4,3-d]pyrimidin-2-yl)oxy)methyl)cyclopropyl)methyl)piperidin-4-yl)piperazin-1-yl)-1-oxoisoindolin-2-yl)piperidine-2.6-dione]",–,< 1 nM
"CCc1c(F)ccc2cc(O)cc(-c3ncc4c(N5CCOCC6(CCO6)C5)nc(OCC5(CN6CCC(CN7CCN(c8ccc9c(c8)CN([C@H]8CCC(=O)NC8=O)C9=O)CC7)CC6)CC5)nc4c3F)c12 (stereo partly drawn) [Compound 125, (3S)-3-(5-(4-((1-((1-(((7-(8-ethyl-7-fluoro-3-hydroxynaphthalen-1-yl)-8-fluoro-4-(1,6-dioxa-9-azaspiro[3.6]decan-9-yl)pyrido[4,3-d]pyrimidin-2-yl)oxy)methyl)cyclopropyl)methyl)piperidin-4-yl)methyl)piperazin-1-yl)-1-oxoisoindolin-2-yl)piperidine-2,6-dione]",20 to 200 nM,–
"CCc1cccc2cc(O)cc(-c3ncc4c(N5CCC[C@@](C)(O)C5)nc(OCC5(CN6CC7(CCC(F)(CN8CCN(c9ccc%10c(c9)CN([C@H]9CCC(=O)NC9=O)C%10=O)CC8)CC7)C6)CC5)nc4c3F)c12 [Compound 179, (S)-3-(5-(4-((2-((1-(((7-(8-ethyl-3-hydroxynaphthalen-1-yl)-8-fluoro-4-((R)-3-hydroxy-3-methylpiperidin-1-yl)pyrido[4,3-d]pyrimidin-2-yl)oxy)methyl)cyclopropyl)methyl)-7-fluoro-2-azaspiro[3.5]nonan-7-yl)methyl)piperazin-1-yl)-1-oxoisoindolin-2-yl)piperidine-2,6-dione]",20 to 200 nM,–
"CCc1cccc2cc(O)cc(-c3ncc4c(N(C)C5C[C@H]5F)nc(OCC5(CN6CCC(CN7CCN(c8ccc9c(c8)CN([C@H]8CCC(=O)NC8=O)C9=O)CC7)CC6)CC5)nc4c3F)c12 (stereo partly drawn) [Compound 29, (S)-3-(5-(4-((1-((1-(((7-(8-ethyl-3-hydroxynaphthalen-1-yl)-8-fluoro-4-(((1R,2R)-2-fluorocyclopropyl)(methyl)amino)pyrido[4,3-d]pyrimidin-2-yl)oxy)methyl)cyclopropyl)methyl)piperidin-4-yl)methyl)piperazin-1-yl)-1-oxoisoindolin-2-yl)piperidine-2,6-dione]",–,1 to 10 nM
"CCc1cccc2cc(O)cc(-c3ncc4c(N5CCNC(=O)CC5)nc(OCC5(CN6CCC(CN7CCN(c8ccc9c(c8)CN([C@H]8CCC(=O)NC8=O)C9=O)CC7)CC6)CC5)nc4c3F)c12 [Compound 127, (S)-3-(5-(4-((1-((1-(((7-(8-ethyl-3-hydroxynaphthalen-1-yl)-8-fluoro-4-(5-oxo-1,4-diazepan-1-yl)pyrido[4,3-d]pyrimidin-2-yl)oxy)methyl)cyclopropyl)methyl)piperidin-4-yl)methyl)piperazin-1-yl)-1-oxoisoindolin-2-yl)piperidine-2,6-dione]",–,> 100 nM
